Take `CCN(CC)CCC(=O)OC[C@@H]1CC(c2ccc(-c3ccc(N4C[C@H](Cn5ccnn5)OC4=O)cc3F)cn2)=NO1` [Example 43, [(5S)-3-(5-{2-Fluoro-4-[(5R)-2-oxo-5-(1H-1,2,3-triazol-1-ylmethyl)-1,3-oxazolidin-3-yl]phenyl}pyridin-2-yl)-4,5-dihydroisoxazol-5-yl]methyl N,N-diethyl-β-alaninate]: the melting point stood at 167 °C.

Consider `O=C1O[C@@H](Cn2ccnn2)CN1c1ccc(-c2ccc(C3=NOC(CS(=O)(=O)CCO)C3)nc2)c(F)c1` (stereo partly drawn) [Example 25, (5R)-3-{3-Fluoro-4-[6-(5-{[(2-hydroxyethyl)sulfonyl]methyl}-4,5-dihydroisoxazol-3-yl)pyridin-3-yl]phenyl}-5-(1H-1,2,3-triazol-1-ylmethyl)-1,3-oxazolidin-2-one], for which the melting point stood at 210 °C.

In turn, `CNC(=O)C1CC(c2ccc(-c3ccc(N4C[C@H](Cn5ccnn5)OC4=O)cc3F)cn2)=NO1` (stereo partly drawn) [Example 24, 3-(5-{2-Fluoro-4-[(5R)-2-oxo-5-(1H-1,2,3-triazol-1-ylmethyl)-1,3-oxazolidin-3-yl]phenyl}pyridin-2-yl)-N-methyl-4,5-dihydroisoxazole-5-carboxamide] gave a melting point of 185 to 195 °C.

Consider `O=C1O[C@@H](Cn2ccnn2)CN1c1ccc(-c2ccc(C3=NO[C@H](COC(F)(F)F)C3)nc2)c(F)c1` [Example 61], for which the melting point came out at 185 °C.

For `CC(C)C(O)C1CC(c2ccc(-c3ccc(N4C[C@H](Cn5ccnn5)OC4=O)cc3F)cn2)=NO1` (single isomer, unassigned) [Example 32], the melting point turned out to be 155 °C.

Molecule `CN(C)C(=O)C1CC(c2ccc(-c3ccc(N4C[C@H](Cn5ccnn5)OC4=O)cc3F)cn2)=NO1` (stereo partly drawn) [Example 23, 3-(5-{2-Fluoro-4-[(5R)-2-oxo-5-(1H-1,2,3-triazol-1-ylmethyl)-1,3-oxazolidin-3-yl]phenyl}pyridin-2-yl)-N,N-dimethyl-4,5-dihydroisoxazole-5-carboxamide] yielded a melting point of 180 to 190 °C.

For `CC(C)(O)C1CC(c2ccc(-c3ccc(N4C[C@H](Cn5ccnn5)OC4=O)cc3F)cn2)=NO1` (stereo partly drawn) [Example 15, (5R)-3-(3-Fluoro-4-{6-[5-(1-hydroxy-1-methylethyl)-4,5-dihydroisoxazol-3-yl]pyridin-3-yl}phenyl)-5-(1H-1,2,3-triazol-1-ylmethyl)-1,3-oxazolidin-2-one], the melting point worked out at 197 °C.

`O=C1O[C@@H](Cn2ccnn2)CN1c1ccc(-c2ccc(C3=NOC(C4(O)CCCC4)C3)nc2)c(F)c1` (stereo partly drawn) [Example 28, (5R)-3-(3-Fluoro-4-{6-[5-(1-hydroxycyclopentyl)-4,5-dihydroisoxazol-3-yl]pyridin-3-yl}phenyl)-5-(1H-1,2,3-triazol-1-ylmethyl)-1,3-oxazolidin-2-one] registered a melting point of 225 °C.

`CC(C)(C)OC(=O)C1CC(c2ccc(-c3ccc(N4C[C@H](Cn5ccnn5)OC4=O)cc3F)cn2)=NO1` (some centres unmarked) [Example 21] displayed a melting point of 165 to 168 °C.

`O=C(O)C1CC(c2ccc(-c3ccc(N4C[C@H](Cn5ccnn5)OC4=O)cc3F)cn2)=NO1` (stereo partly drawn) [Example 22, 3-(5-{2-Fluoro-4-[(5R)-2-oxo-5-(1H-1,2,3-triazol-1-ylmethyl)-1,3-oxazolidin-3-yl]phenyl}pyridin-2-yl)-4,5-dihydroisoxazole-5-carboxylic acid] returned a melting point of 190 to 194 °C.

`COC[C@@H]1CC(c2ccc(-c3ccc(N4C[C@H](Cn5ccnn5)OC4=O)cc3F)cn2)=NO1` [Example 64, (5R)-3-(3-Fluoro-4-{6-[(5S)-5-(methoxymethyl)-4,5-dihydroisoxazol-3-yl]pyridin-3-yl}phenyl)-5-(1H-1,2,3-triazol-1-ylmethyl)-1,3-oxazolidin-2-one]: the melting point came out at 172 °C.

`N.N.N.N.O=C1O[C@@H](Cn2ccnn2)CN1c1ccc(-c2ccc(C3=NO[C@H]([C@@H](COP(=O)(O)O)OP(=O)(O)O)C3)nc2)c(F)c1` [Example 59, Phosphoric acid mono-(1R)-[(5R)-2-(3-{(5S)-[2-fluoro-4-(2-oxo-5-[1,2,3]triazol-1-ylmethyl-oxazolidin-3-yl)-phenyl]-pyridin-2-yl}-4,5-dihydro-isoxazol-5-yl)-2-phosphonooxy-ethyl]ester, tetrakis ammonium salt]: the melting point is 175 to 180 °C (dec.).

The molecule `CC(C)C(OC(=O)Cc1ccc2ccccc2c1)C1CC(c2ccc(-c3ccc(N4C[C@H](Cn5ccnn5)OC4=O)cc3F)cn2)=NO1` (single isomer, unassigned) [Example 30] displayed a melting point of 85 °C.

As for `O=C1O[C@@H](Cn2ccnn2)CN1c1ccc(-c2ccc(C3=NOC(C(O)c4ccccc4)C3)nc2)c(F)c1` (single isomer, unassigned) [Example 26], the melting point amounted to 182 °C.

Turning to `COCCC(=O)OC[C@@H](O)[C@@H]1CC(c2ccc(-c3ccc(N4C[C@H](Cn5ccnn5)OC4=O)cc3F)cn2)=NO1` [Example 56, (2R)-2-[(5S)-3-(5-{2-Fluoro-4-[(5R)-2-oxo-5-(1H-1,2,3-triazol-1-ylmethyl)-1,3-oxazolidin-3-yl]phenyl}pyridin-2-yl)-4,5-dihydroisoxazol-5-yl]-2-hydroxyethyl 3-methoxypropanoate], the melting point was determined as 130 °C.

For `O=C(OC[C@@H](O)[C@@H]1CC(c2ccc(-c3ccc(N4C[C@H](Cn5ccnn5)OC4=O)cc3F)cn2)=NO1)c1cccnc1` [Example 57, (2R)-2-[(5S)-3-(5-{2-Fluoro-4-[(5R)-2-oxo-5-(1H-1,2,3-triazol-1-ylmethyl)-1,3-oxazolidin-3-yl]phenyl}pyridin-2-yl)-4,5-dihydroisoxazol-5-yl]-2-hydroxyethyl nicotinate], the melting point amounted to 210 °C.

In the case of `O=C1O[C@@H](Cn2ccnn2)CN1c1ccc(-c2ccc(C3=NO[C@H](CSCCO)C3)nc2)c(F)c1` [Example 60, (5R)-3-{3-Fluoro-4-[6-((5S)-5-{[(2-hydroxyethyl)thio]methyl}-4,5-dihydroisoxazol-3-yl)pyridin-3-yl]phenyl}-5-(1H-1,2,3-triazol-1-ylmethyl)-1,3-oxazolidin-2-one], the melting point came to 162 °C.

As to `CN1CCC(O)(C2CC(c3ccc(-c4ccc(N5C[C@H](Cn6ccnn6)OC5=O)cc4F)cn3)=NO2)CC1` (stereo partly drawn) [Example 34, (5R)-3-(3-Fluoro-4-{6-[5-(4-hydroxy-1-methylpiperidin-4-yl)-4,5-dihydroisoxazol-3-yl]pyridin-3-yl}phenyl)-5-(1H-1,2,3-triazol-1-ylmethyl)-1,3-oxazolidin-2-one], the melting point came to 73 °C.

`COCCOC(=O)OC[C@@H](O)[C@@H]1CC(c2ccc(-c3ccc(N4C[C@H](Cn5ccnn5)OC4=O)cc3F)cn2)=NO1` [Example 58, (2R)-2-[(5S)-3-(5-{2-Fluoro-4-[(5R)-2-oxo-5-(1H-1,2,3-triazol-1-ylmethyl)-1,3-oxazolidin-3-yl]phenyl}pyridin-2-yl)-4,5-dihydroisoxazol-5-yl]-2-hydroxyethyl 2-methoxyethyl carbonate] came in with a melting point of 125 °C.

`O=C1O[C@@H](Cn2ccnn2)CN1c1ccc(-c2ccc(C3=NO[C@H](COCC(F)(F)F)C3)nc2)c(F)c1` [Example 62] had a melting point of 199 °C.

Source of the values: US20060116400A1, “Oxazolidinone and/or isoxazoline derivatives as antibacterial agents” (AstraZeneca AB, priority 2002, published 2006).
